Results on six molecules are retold here after paper PMC5078090, “In vivo screening and discovery of novel candidate thalidomide analogs in the zebrafish embryo and chicken embryo model systems” (Oncotarget, 2016).

Entries after “also recorded” stand apart in the source; their conditions may differ.

Data set [1] deals with fli1:EGFP zebrafish embryos. Description: fli1:EGFP zebrafish embryo angiogenesis assay (intersegmental vessel outgrowth and number). The format is in vivo. Conditions: for Anti-angiogenic activity (loss of ISVs or inhibition of ISV outgrowth): fli1:EGFP embryos, 24 h incubation, result in words; for minimal effective concentration: Danio rerio, 24 h, 24 hpf embryos exposed 24 h, screened 1-200 μg/mL, where no activity was seen the concentration shown is the lowest screened. On the procedure:
To determine if our novel thalidomide analogs (Figure 1) had any effect on in vivo angiogenesis, we used fli1:EGFP embryos which express green fluorescent protein (GFP) on endothelial cells throughout development. Embryos were allowed to develop for 24 hours, then exposed to either vehicle or a compound of interest at the concentration range of 1 to 200 μg/mL. During this time the vasculature is rapidly expanding and developing new, naive intersegmental vessels (ISVs). The embryos were imaged after 24 hours of incubation with the drug (Figure 2A). […] We also observed that the potency of each compound varied.
Figure 2 The effect of novel thalidomide analogs on vessel length fli1:EGFP zebrafish were incubated with vehicle or compounds for 24 hours, at which point vessel outgrowth and number were measured. A. Images of zebrafish exposed to the vehicle or test compounds. […] Treatment with C4 (1.5 μg/mL), C18 (50 μg/mL), C81 (50 μg/mL), C82 (5 μg/mL), C83 (20 μg/mL) and C84 (50 μg/mL) show reduction in vessel out growth (white arrow) and in some cases loss of vessel (white asterisks). B. Stalk length & C. stalk number are reduced. Compounds are shown at the lowest concentration producing an effect. The data represent the mean + the standard error of the mean.
Zebrafish embryos were treated with analogs as previously described. Briefly, fli1:EGFP embryos were collected and embryos were allowed to develop for 24 hours. Embryos were dechorionated manually and exposed to test compounds or vehicle control (0.1% DMSO) for a further 24 hours. Embryos were anesthetized with 0.05% MS222 (Tricaine) (Sigma Aldrich) and live visualization of blood vessels was carried out.
(§1) A broad series of novel thalidomide-based compounds were chemically synthesized (WL, NHG and WDF, NIH), dissolved in DMSO, stored in stock concentrations between 10-100 mg/mL, and used at a final working DMSO concentration of 0.1%. The chemical structures of lead compounds of interest were confirmed by chemical characterization (purity >99.5%). Compounds were screened across a range of concentrations from 1-200 μg/mL to determine the lowest effective concentration.

The next data set has as its system WT Zebrafish. The data set can be described thus: WT zebrafish embryo developmental defect (teratogenicity) screen. It counts as in vivo. Conditions: for Eye development / eye diameter in zebrafish embryos / Pectoral fin development / fin length in zebrafish embryos: Figure 4, result in words; for Lowest effective concentration, WT Zebrafish assay: screened 1-200 μg/mL, where no activity was seen the concentration shown is the lowest screened.

The test system of data set [2] is Tg(MPO::EGFP)^114 zebrafish. The data set can be described thus: Tg(MPO::EGFP)^114 zebrafish tail fin clip assay of neutrophil migration to the wound site. Conditions: for minimal effective concentration: Danio rerio, Neutrophil, fin clipped at 72 hpf, imaged at 24 h, screened 1-200 μg/mL, where no activity was seen the concentration shown is the lowest screened; for Effect on neutrophil migration to the wound site (anti-inflammatory activity): fin clipped 72 hpf embryos, result in words. The format is in vivo.
Source text: To assess the immunomodulatory effects of the thalidomide analogs across the concentration range used in the previous assay, the transgenic zebrafish line Tg(MPO::EGFP)^114 was used. These embryos express GFP tagged myeloperoxidase, marking neutrophils during the inflammatory response, for example following injury. […] This allowed us to subsequently assess the anti-inflammatory activity of each compound by immersing embryos in the test drug or vehicle. The embryos were examined for migration of neutrophils to the wound site. In comparison to control embryos (Figure 3A) compounds with anti-inflammatory properties had reduction of at least 50% of neutrophils recruited to the wound site (Figure 3). […] We also screened the previously identified six anti-angiogenic compounds of interest in the Tg(MPO::EGFP)^114 line.
Figure 3 The effect of thalidomide analogs on the inflammatory response to wound healing A. Zebrafish (72 hpf) embryos transgenic for a fluorescently tagged neutrophil marker Tg(MPO::EGFP)^114 were fin clipped to induce an inflammatory response and exposed to vehicle or a test compound. Broken line indicates the tail fin with cut and area of the wound site. […] The data represent the mean + the standard error of the mean.
Tg(MPO::EGFP)^114 embryos were tail fin clipped as previously detailed and incubated with test compounds or vehicle control at 72 hpf. Fish were imaged at 24 hours and the number of migratory neutrophils present at the wound site were counted. Compounds inducing an at least 50% reduction of neutrophils to the wound site were considered to have anti-inflammatory properties in this system. All larvae were assessed for viability and morphological integrity. A minimum of 10 embryos were used per concentration per drug. Error bars represent standard error of the mean.
as §1

The subject of another data set is chicken embryos. Description: In ovo chicken embryo teratogenicity assay. Conditions: for Damage observed: HH stage 17-18 chicken embryos, 100 μg/mL; for Lowest effective concentration, Chicken assay: HH stage 17-18 embryos, where no activity was seen the concentration shown is the lowest screened; for Teratogenicity in these assays: chicken and zebrafish embryo assays together, result in words. It counts as in vivo, white leghorn chicken. The method, then: Compounds of interest were screened in chicken and/or zebrafish embryos (Figure 4), to determine if these compounds are teratogenic. The chicken embryo is well established as a model to determine the action of compounds upon development.
Fertilized white leghorn chicken embryos were incubated at 38°C and staged according to the Hamburger and Hamilton (HH) stages of development. Embryos were tested at HH stage 17-18 (day 2.5). Following membrane removal test compounds or vehicle control solutions were applied over the embryo. The eggs were sealed and the development of the embryos was monitored up to HH stage 30 (E9). A minimum of 3 embryos were used per concentration, per drug.

Where [3] appears, read: applied at HH stage 17-18, result in words.

As for `O=C1c2c(F)c(F)c(F)c(F)c2C(=O)N1c1ccc(F)cc1F` [CPS49, reference compound], the “Anti-angiogenic activity (loss of ISVs or inhibition of ISV outgrowth)” value in data set [1] was “reduction in vessel outgrowth (white arrow), loss of vascular connectivity and a decrease in the number of forming blood vessels”.

What is called minimal effective concentration is the lowest level tested that produced the effect sought. With `O=C1c2ccccc2C(=S)N1C1CCC(=S)NC1=S` (stereo not drawn) [Compound C4], in data set [1], the minimal effective concentration lay within 1.5 to 100 µg/mL and the “Anti-angiogenic activity (loss of ISVs or inhibition of ISV outgrowth)” value is “anti-angiogenic activity”. Also, in data set [1] (inhibition of vessel outgrowth and number, 24 h exposure), the “Lowest effective anti-angiogenic concentration, fli1:EGFP assay (molar)” value was 4.9 µM. Moreover, in the data set on WT Zebrafish, the “Eye development / eye diameter in zebrafish embryos” value is “microopthalmia; also recorded: reductions in eye diameter”; the “Pectoral fin development / fin length in zebrafish embryos” value was “malformation in fin development”; the “Lowest effective concentration, WT Zebrafish assay” value was 10 µg/mL. Also, the minimal effective concentration in data set [2] is 10 µg/mL. In the data set on chicken embryos, the Damage observed entry is recorded as “Necrotic YSM, hemorrhaging” and the “Lowest effective concentration, Chicken assay” value was 100 µg/mL. In addition, in the data set with chicken embryos (setting [3]), the “Defects in chicken embryo development (text and figure legend)” value (“Defects in chicken embryo development” below) is “hemorrhaging; also recorded: abnormal blood vessels and necrotic-like regions in the surrounding yolk sac membrane”.

Regarding `O=C1NC(=S)CCC1N1C(=O)c2cccc([N+](=O)[O-])c2C1=O` (stereo not drawn) [Compound C7], in data set [1], the minimal effective concentration was determined as 10 µg/mL and the “Anti-angiogenic activity (loss of ISVs or inhibition of ISV outgrowth)” value is on record as “without anti-angiogenic activities”. Further, the “Lowest effective concentration, WT Zebrafish assay” value in the data set with WT Zebrafish is 10 µg/mL. For the same molecule, in data set [2], the minimal effective concentration is 10 µg/mL and the “Effect on neutrophil migration to the wound site (anti-inflammatory activity)” value (shortened to “Effect on neutrophil migration”) is “reduced neutrophil migration”. Moreover, in the data set with chicken embryos, the “Lowest effective concentration, Chicken assay” value was 100 µg/mL and the “Teratogenicity in these assays” value is “non-teratogenic”. Also, the “Defects in chicken embryo development” value in the data set on chicken embryos (setting [3]) is given as “no effect”.

Regarding `CC(=O)Oc1ccc2c(c1)C(=O)N(C1CCC(=O)NC1=O)C2=O` (stereo not drawn) [Compound C18], the “Anti-angiogenic activity (loss of ISVs or inhibition of ISV outgrowth)” value in data set [1] was “anti-angiogenic activity”. In addition, in the data set with WT Zebrafish, the “Eye development / eye diameter in zebrafish embryos” value is on record as “reductions in eye diameter”; the “Pectoral fin development / fin length in zebrafish embryos” value is reported as “reductions”; the “Lowest effective concentration, WT Zebrafish assay” value amounted to 50 µg/mL. Also, in data set [2], the minimal effective concentration turned out to be 50 µg/mL and the “Effect on neutrophil migration” value was “significantly reduce neutrophil migration”. In the data set with chicken embryos, the Damage observed result was “Necrotic YSM, stunted growth” and the “Lowest effective concentration, Chicken assay” value was 100 µg/mL. The “Defects in chicken embryo development” value in the data set on chicken embryos (setting [3]) was “reduced body size compared to control embryos; also recorded: abnormal blood vessels and necrotic-like regions in the surrounding yolk sac membrane”.

Turning to `Nc1cccc2c1CN(C1CCC(=O)NC1=O)C2=S` (stereo not drawn) [Compound C29], the minimal effective concentration in data set [1] is 10 µg/mL; in data set [2], 5 µg/mL. For the same molecule, the “Effect on neutrophil migration” value in data set [2] was “reduced neutrophil migration”. Moreover, the Damage observed result in the data set on chicken embryos is “Twisted spines, hemorrhaging”. In the data set with chicken embryos, the “Lowest effective concentration, Chicken assay” value turned out to be 100 µg/mL. For the same molecule, the “Defects in chicken embryo development” value was “hemorrhaging and necrotic-like damage in the YSM” in the data set with chicken embryos (setting [3]); “twisted spinal cords, necrotic-like damage in the YSM and high death rates” in the data set on chicken embryos (in vivo).

On to `O=C1c2ccccc2CN1C12CC3CC(CC(O)(C3)C1)C2` [Compound C86], for which, in data set [1], the minimal effective concentration came out at 10 µg/mL and the “Anti-angiogenic activity (loss of ISVs or inhibition of ISV outgrowth)” value is reported as “without anti-angiogenic activities”. For the same molecule, in data set [2], the minimal effective concentration stood at 100 µg/mL and the “Effect on neutrophil migration” value was “reduced neutrophil migration”. Further, in the data set on chicken embryos, the “Lowest effective concentration, Chicken assay” value worked out at 100 µg/mL and the “Teratogenicity in these assays” value is reported as “non-teratogenic”. Further, the “Defects in chicken embryo development” value with chicken embryos (setting [3]) is “no effect”.
